Experimental data from patent EP1565179B1, “COMPOSITION COMPRISING A CARBAMIC ACID DERIVATIVE, ITS USE AS COSMETIC AND MEDICINE” (Laboratoires Expanscience, priority 2002, dated 2004).

Legend:
[1] = tested on: cellules de Langerhans (CL) et cellules dendritiques (CD); experiment: Migration of skin dendritic cells (FITC+) to draining lymph nodes in mice after topical FITC hapten application; type: in vivo, souris; settings: 0,5% topical formulation on mouse ears twice daily for 4 days; 1,5% FITC; lymph nodes analysed 24 h later
Text: Le FITC (Fluorescéine isothiocyanate, Sigma, St. Louis, MO) a été dilué extemporanément dans un mélange acétone: dibutylphthalate (1:1).
L'acide carbamique A (acide 1-Hydroxyméthyl-tridécyl carbamique) et le LU105 (LU 105 est un inhibiteur de MMPs, correspondant à un extrait peptidique de lupin blanc commercialisé par la Société Expanscience sous le nom de marque Actimp 193®) ont été fournis par les "Laboratoires Expanscience", et formulés seuls ou en association dans un véhicule inerte compatible avec une application topique tel que décrit à l'exemple 1 ci-dessus [Acide carbamique A (0,5%) ± LU105 (2%)]. Les différentes formulations ont été appliquées sur les oreilles de souris deux fois par jour pendant 4 jours consécutifs. Trois heures après la dernière application, 1,5% de FITC sont appliqués sur les deux oreilles (l'une traitée et l'autre non traitée (Contrôle)).
L'effet des deux molécules a été évalué in vivo chez la souris. La peau des deux oreilles est badigeonnée avec 1,5% FITC (2X5 µl). 24 h après, les souris sont sacrifiées et une suspension cellulaire est préparée à partir des ganglions auriculaires et cervicaux (ganglions drainants, ci-après dénommés GL) ou à partir des ganglions popliteaux (ganglions non drainants, contrôle négatif). Les tissus ont été découpés et les cellules sont séparées par filtration (filtre […], Falcon; Becton Dickinson), puis lavés. […]

[2] = tested on: cellules dendritiques générées in vitro à partir de précurseurs CD34+ issus de sang de cordon; experiment: Migration of hapten BB-sensitised in vitro generated dendritic/Langerhans cells through Matrigel in a two-compartment culture chamber; type: cell-based
Protocol: Des cellules mononuclées ont été obtenues à partir de sang de cordon ombilical de donneurs sains, par centrifugation sur Ficoll. Les cellules CD34+ ont ensuite été purifiées par immunosélection à l'aide d'anticorps spécifique et de billes magnétiques (Miltenyi Biotech, Allemagne). Les cellules CD34+ ont été cultivées en présence de GM-CSF (100 ng/ml), TNF-α (2,5 ng/ml) en RPMI additionné de 10% sérum de veau foetal, pendant 5 jours. L'addition de TGF-β1, facteur qui favorise la différenciation des cellules vers la voie cellules de Langerhans, a été réalisée au cinquième jour de culture.
Le milieu de base choisi pour l'ensemble de l'étude a été le RPMI 1640 (Gibco BRL, France). Le composé A fourni par EXPANSCIENCE, à la concentration de 10^-2 M en solution dans du DMSO (Diméthyl Sulfoxide), a été dilué en RPMI-1640 et testé à 1 µM.
Les cellules ont été traitées, au septième jour, par l'haptène BB (Base de Brandowski, 1,17 µg/ml), pendant 24 h, puis soumises au test de migration.
Un système de chambre de culture à deux compartiments (Falcon, Becton Dickinson, France) a été utilisé. Le compartiment supérieur est séparé du compartiment inférieur par une membrane de porosité 8 µm, sur laquelle sont déposées 50 µg/cm^2 de Matrigel. […]

In the case of CCCCCCCCCCCCC(CO)NC(=O)O (stereo not drawn) [Composé A, (1-Hydroxyméthyl-tridécyl)-acide carbamique], the “Inhibition de la migration en %” value [1] was 25%, the “Pourcentage de cellules dendritiques générées in vitro ayant migré” value ([2]; 1 µM, cells sensitised with hapten BB (1,17 µg/ml, 24 h), 18 h incubation at 37°C, BB-only control 20) was 15% and the inhibition at 1 µM ([2]; read-out: inhibition de la migration des cellules dendritiques générées in vitro et activées par l'haptène BB) was 25%.
